Test results reported in the NIST ThermoML archive (doi:10.1021/je201289w).
± gives the expanded uncertainty stated by the source.

conditions: 318.15 K; 101.33 kPa; Liquid; Vibrating tube method

Compared with `CCn1cc[n+](C)c1.O=S(=O)([O-])O` [1-ethyl-3-methylimidazolium hydrogen sulfate], `CCn1cc[n+](C)c1.CS(=O)(=O)[O-]` [1-ethyl-3-methylimidazolium methanesulfonate] is lower in mass density: 1354.6 ± 2.1 kg/m3 for the first, 1228.2 ± 1.7 kg/m3 for the second.

Going from `CCn1cc[n+](C)c1.N#C[B-](C#N)(C#N)C#N` [1-ethyl-3-methylimidazolium tetracyanoborate] to `CCn1cc[n+](C)c1.N#C[S-]` [1-ethyl-3-methylimidazolium thiocyanate], the mass density rises from 1013 ± 1.1 kg/m3 to 1103.3 ± 1.4 kg/m3.

In the case of `CCn1cc[n+](C)c1.F[B-](F)(F)F` [1-ethyl-3-methylimidazolium tetrafluoroborate], the mass density is reported as 1265.3 ± 1.8 kg/m3.

same assay, conditions: 323.15 K; 101.33 kPa; Liquid; Vibrating tube method

Compared with `CCCCn1cc[n+](C)c1.O=S(=O)([N-]S(=O)(=O)C(F)(F)C(F)(F)C(F)(F)C(F)(F)F)C(F)(F)C(F)(F)C(F)(F)C(F)(F)F`, `CCn1cc[n+](C)c1.O=S(=O)([N-]S(=O)(=O)C(F)(F)F)C(F)(F)F` is lower in mass density: 1581.6 ± 2.9 kg/m3 for the first, 1493.3 ± 2.6 kg/m3 for the second.

Compared with `CCC[N+]1(C)CCCC1.O=S(=O)([N-]S(=O)(=O)C(F)(F)F)C(F)(F)F`, `CCn1cc[n+](C)c1.O=S(=O)([O-])O` [1-ethyl-3-methylimidazolium hydrogen sulfate] is lower in mass density: 1404.8 ± 2.3 kg/m3 for the first, 1351.5 ± 2.1 kg/m3 for the second.

Going from `CCn1cc[n+](C)c1.N#CN=C=[N-]` [1-ethyl-3-methylimidazolium dicyanamide] to `CCn1cc[n+](C)c1.N#C[S-]` [1-ethyl-3-methylimidazolium thiocyanate], the mass density rises from 1084.8 ± 1.3 kg/m3 to 1100.3 ± 1.4 kg/m3.

Going from `CCOS(=O)(=O)[O-].CCn1cc[n+](C)c1` [1-ethyl-3-methylimidazolium ethyl sulfate] to `CCn1cc[n+](C)c1.CS(=O)(=O)[O-]` [1-ethyl-3-methylimidazolium methanesulfonate], the mass density rises from 1220.9 ± 1.7 kg/m3 to 1224.8 ± 1.7 kg/m3.

Compared with `CCn1cc[n+](C)c1.N#C[B-](C#N)(C#N)C#N` [1-ethyl-3-methylimidazolium tetracyanoborate], `CCn1cc[n+](C)c1.F[B-](F)(F)F` [1-ethyl-3-methylimidazolium tetrafluoroborate] is higher in mass density: 1009.1 ± 1.1 kg/m3 for the first, 1261.6 ± 1.8 kg/m3 for the second.

same assay, conditions: 328.15 K; 101.33 kPa; Liquid; Vibrating tube method

Going from `CCCCn1cc[n+](C)c1.O=S(=O)([N-]S(=O)(=O)C(F)(F)C(F)(F)C(F)(F)C(F)(F)F)C(F)(F)C(F)(F)C(F)(F)C(F)(F)F` to `CCn1cc[n+](C)c1.O=S(=O)([N-]S(=O)(=O)C(F)(F)F)C(F)(F)F`, the mass density falls from 1575.8 ± 2.9 kg/m3 to 1488.4 ± 2.6 kg/m3.

Compared with `CCC[N+]1(C)CCCC1.O=S(=O)([N-]S(=O)(=O)C(F)(F)F)C(F)(F)F`, `CCn1cc[n+](C)c1.O=S(=O)([O-])O` [1-ethyl-3-methylimidazolium hydrogen sulfate] is lower in mass density: 1400.4 ± 2.3 kg/m3 for the first, 1348.5 ± 2.1 kg/m3 for the second.

Compared with `CCn1cc[n+](C)c1.N#CN=C=[N-]` [1-ethyl-3-methylimidazolium dicyanamide], `CCn1cc[n+](C)c1.N#C[S-]` [1-ethyl-3-methylimidazolium thiocyanate] is higher in mass density: 1081.5 ± 1.3 kg/m3 for the first, 1097.3 ± 1.3 kg/m3 for the second.

Compared with `CCOS(=O)(=O)[O-].CCn1cc[n+](C)c1` [1-ethyl-3-methylimidazolium ethyl sulfate], `CCn1cc[n+](C)c1.CS(=O)(=O)[O-]` [1-ethyl-3-methylimidazolium methanesulfonate] is higher in mass density: 1217.6 ± 1.7 kg/m3 for the first, 1221.5 ± 1.7 kg/m3 for the second.

First: CCn1cc[n+](C)c1.N#C[B-](C#N)(C#N)C#N [1-ethyl-3-methylimidazolium tetracyanoborate]
Second: CCn1cc[n+](C)c1.F[B-](F)(F)F [1-ethyl-3-methylimidazolium tetrafluoroborate]
The mass density of the first is lower: 1005.2 ± 1.1 kg/m3 for the first, 1257.8 ± 1.8 kg/m3 for the second.

same assay, conditions: 333.15 K; 101.33 kPa; Liquid; Vibrating tube method

Going from `CCCCn1cc[n+](C)c1.O=S(=O)([N-]S(=O)(=O)C(F)(F)C(F)(F)C(F)(F)C(F)(F)F)C(F)(F)C(F)(F)C(F)(F)C(F)(F)F` to `CCn1cc[n+](C)c1.O=S(=O)([N-]S(=O)(=O)C(F)(F)F)C(F)(F)F`, the mass density falls from 1570 ± 2.9 kg/m3 to 1483.4 ± 2.6 kg/m3.

First: CCC[N+]1(C)CCCC1.O=S(=O)([N-]S(=O)(=O)C(F)(F)F)C(F)(F)F
Second: CCn1cc[n+](C)c1.O=S(=O)([O-])O [1-ethyl-3-methylimidazolium hydrogen sulfate]
The mass density of the first is higher: 1396 ± 2.3 kg/m3 for the first, 1345.4 ± 2.1 kg/m3 for the second.

Compared with `CCn1cc[n+](C)c1.N#CN=C=[N-]` [1-ethyl-3-methylimidazolium dicyanamide], `CCn1cc[n+](C)c1.N#C[S-]` [1-ethyl-3-methylimidazolium thiocyanate] is higher in mass density: 1078.3 ± 1.3 kg/m3 for the first, 1094.4 ± 1.3 kg/m3 for the second.

First: CCOS(=O)(=O)[O-].CCn1cc[n+](C)c1 [1-ethyl-3-methylimidazolium ethyl sulfate]
Second: CCn1cc[n+](C)c1.CS(=O)(=O)[O-] [1-ethyl-3-methylimidazolium methanesulfonate]
The mass density of the first is lower: 1214.2 ± 1.7 kg/m3 for the first, 1218.1 ± 1.7 kg/m3 for the second.

First: CCn1cc[n+](C)c1.N#C[B-](C#N)(C#N)C#N [1-ethyl-3-methylimidazolium tetracyanoborate]
Second: CCn1cc[n+](C)c1.F[B-](F)(F)F [1-ethyl-3-methylimidazolium tetrafluoroborate]
The mass density of the first is lower: 1001.3 ± 1.1 kg/m3 for the first, 1254 ± 1.8 kg/m3 for the second.

same assay, conditions: 338.15 K; 101.33 kPa; Liquid; Vibrating tube method

First: CCCCn1cc[n+](C)c1.O=S(=O)([N-]S(=O)(=O)C(F)(F)C(F)(F)C(F)(F)C(F)(F)F)C(F)(F)C(F)(F)C(F)(F)C(F)(F)F
Second: CCn1cc[n+](C)c1.O=S(=O)([N-]S(=O)(=O)C(F)(F)F)C(F)(F)F
The mass density of the first is higher: 1564.2 ± 2.9 kg/m3 for the first, 1478.5 ± 2.6 kg/m3 for the second.

Going from `CCC[N+]1(C)CCCC1.O=S(=O)([N-]S(=O)(=O)C(F)(F)F)C(F)(F)F` to `CCn1cc[n+](C)c1.O=S(=O)([O-])O` [1-ethyl-3-methylimidazolium hydrogen sulfate], the mass density falls from 1391.6 ± 2.3 kg/m3 to 1342.4 ± 2.1 kg/m3.

Going from `CCn1cc[n+](C)c1.N#CN=C=[N-]` [1-ethyl-3-methylimidazolium dicyanamide] to `CCn1cc[n+](C)c1.N#C[S-]` [1-ethyl-3-methylimidazolium thiocyanate], the mass density rises from 1075.2 ± 1.3 kg/m3 to 1091.4 ± 1.3 kg/m3.

Going from `CCOS(=O)(=O)[O-].CCn1cc[n+](C)c1` [1-ethyl-3-methylimidazolium ethyl sulfate] to `CCn1cc[n+](C)c1.CS(=O)(=O)[O-]` [1-ethyl-3-methylimidazolium methanesulfonate], the mass density rises from 1210.9 ± 1.7 kg/m3 to 1214.8 ± 1.7 kg/m3.

Compared with `CCn1cc[n+](C)c1.N#C[B-](C#N)(C#N)C#N` [1-ethyl-3-methylimidazolium tetracyanoborate], `CCn1cc[n+](C)c1.F[B-](F)(F)F` [1-ethyl-3-methylimidazolium tetrafluoroborate] is higher in mass density: 997.4 ± 1.1 kg/m3 for the first, 1250.2 ± 1.8 kg/m3 for the second.

same assay, conditions: 343.15 K; 101.33 kPa; Liquid; Vibrating tube method

Going from `CCCCn1cc[n+](C)c1.O=S(=O)([N-]S(=O)(=O)C(F)(F)C(F)(F)C(F)(F)C(F)(F)F)C(F)(F)C(F)(F)C(F)(F)C(F)(F)F` to `CCn1cc[n+](C)c1.O=S(=O)([N-]S(=O)(=O)C(F)(F)F)C(F)(F)F`, the mass density falls from 1558.4 ± 2.9 kg/m3 to 1473.6 ± 2.5 kg/m3.

Compared with `CCC[N+]1(C)CCCC1.O=S(=O)([N-]S(=O)(=O)C(F)(F)F)C(F)(F)F`, `CCn1cc[n+](C)c1.O=S(=O)([O-])O` [1-ethyl-3-methylimidazolium hydrogen sulfate] is lower in mass density: 1387.2 ± 2.2 kg/m3 for the first, 1339.4 ± 2.1 kg/m3 for the second.

Going from `CCn1cc[n+](C)c1.N#CN=C=[N-]` [1-ethyl-3-methylimidazolium dicyanamide] to `CCn1cc[n+](C)c1.N#C[S-]` [1-ethyl-3-methylimidazolium thiocyanate], the mass density rises from 1072 ± 1.3 kg/m3 to 1088.4 ± 1.3 kg/m3.

First: CCOS(=O)(=O)[O-].CCn1cc[n+](C)c1 [1-ethyl-3-methylimidazolium ethyl sulfate]
Second: CCn1cc[n+](C)c1.CS(=O)(=O)[O-] [1-ethyl-3-methylimidazolium methanesulfonate]
The mass density of the first is lower: 1207.6 ± 1.7 kg/m3 for the first, 1211.5 ± 1.7 kg/m3 for the second.

Compared with `CCn1cc[n+](C)c1.N#C[B-](C#N)(C#N)C#N` [1-ethyl-3-methylimidazolium tetracyanoborate], `CCn1cc[n+](C)c1.F[B-](F)(F)F` [1-ethyl-3-methylimidazolium tetrafluoroborate] is higher in mass density: 993.6 ± 1.1 kg/m3 for the first, 1246.5 ± 1.8 kg/m3 for the second.

same assay, conditions: 348.15 K; 101.33 kPa; Liquid; Vibrating tube method

First: CCCCn1cc[n+](C)c1.O=S(=O)([N-]S(=O)(=O)C(F)(F)C(F)(F)C(F)(F)C(F)(F)F)C(F)(F)C(F)(F)C(F)(F)C(F)(F)F
Second: CCn1cc[n+](C)c1.O=S(=O)([N-]S(=O)(=O)C(F)(F)F)C(F)(F)F
The mass density of the first is higher: 1552.6 ± 2.8 kg/m3 for the first, 1468.7 ± 2.5 kg/m3 for the second.

Going from `CCC[N+]1(C)CCCC1.O=S(=O)([N-]S(=O)(=O)C(F)(F)F)C(F)(F)F` to `CCn1cc[n+](C)c1.O=S(=O)([O-])O` [1-ethyl-3-methylimidazolium hydrogen sulfate], the mass density falls from 1382.9 ± 2.2 kg/m3 to 1336.4 ± 2.1 kg/m3.

Going from `CCn1cc[n+](C)c1.N#CN=C=[N-]` [1-ethyl-3-methylimidazolium dicyanamide] to `CCn1cc[n+](C)c1.N#C[S-]` [1-ethyl-3-methylimidazolium thiocyanate], the mass density rises from 1068.9 ± 1.3 kg/m3 to 1085.5 ± 1.3 kg/m3.

First: CCOS(=O)(=O)[O-].CCn1cc[n+](C)c1 [1-ethyl-3-methylimidazolium ethyl sulfate]
Second: CCn1cc[n+](C)c1.CS(=O)(=O)[O-] [1-ethyl-3-methylimidazolium methanesulfonate]
The mass density of the first is lower: 1204.2 ± 1.7 kg/m3 for the first, 1208.1 ± 1.7 kg/m3 for the second.

First: CCn1cc[n+](C)c1.N#C[B-](C#N)(C#N)C#N [1-ethyl-3-methylimidazolium tetracyanoborate]
Second: CCn1cc[n+](C)c1.F[B-](F)(F)F [1-ethyl-3-methylimidazolium tetrafluoroborate]
The mass density of the first is lower: 989.8 ± 1.1 kg/m3 for the first, 1242.8 ± 1.8 kg/m3 for the second.

same assay, conditions: 353.15 K; 101.33 kPa; Liquid; Vibrating tube method

Compared with `CCCCn1cc[n+](C)c1.O=S(=O)([N-]S(=O)(=O)C(F)(F)C(F)(F)C(F)(F)C(F)(F)F)C(F)(F)C(F)(F)C(F)(F)C(F)(F)F`, `CCn1cc[n+](C)c1.O=S(=O)([N-]S(=O)(=O)C(F)(F)F)C(F)(F)F` is lower in mass density: 1546.8 ± 2.8 kg/m3 for the first, 1463.9 ± 2.5 kg/m3 for the second.

Going from `CCC[N+]1(C)CCCC1.O=S(=O)([N-]S(=O)(=O)C(F)(F)F)C(F)(F)F` to `CCn1cc[n+](C)c1.O=S(=O)([O-])O` [1-ethyl-3-methylimidazolium hydrogen sulfate], the mass density falls from 1378.6 ± 2.2 kg/m3 to 1333.4 ± 2.1 kg/m3.

First: CCn1cc[n+](C)c1.N#CN=C=[N-] [1-ethyl-3-methylimidazolium dicyanamide]
Second: CCn1cc[n+](C)c1.N#C[S-] [1-ethyl-3-methylimidazolium thiocyanate]
The mass density of the first is lower: 1065.8 ± 1.3 kg/m3 for the first, 1082.6 ± 1.3 kg/m3 for the second.

Going from `CCOS(=O)(=O)[O-].CCn1cc[n+](C)c1` [1-ethyl-3-methylimidazolium ethyl sulfate] to `CCn1cc[n+](C)c1.CS(=O)(=O)[O-]` [1-ethyl-3-methylimidazolium methanesulfonate], the mass density rises from 1200.9 ± 1.6 kg/m3 to 1204.8 ± 1.7 kg/m3.

Compared with `CCn1cc[n+](C)c1.N#C[B-](C#N)(C#N)C#N` [1-ethyl-3-methylimidazolium tetracyanoborate], `CCn1cc[n+](C)c1.F[B-](F)(F)F` [1-ethyl-3-methylimidazolium tetrafluoroborate] is higher in mass density: 986 ± 1.1 kg/m3 for the first, 1239.2 ± 1.8 kg/m3 for the second.
